Assay results published in patent publication US20230085307A1, “PYRIDAZINONE COMPOUND AND HERBICIDE” (NISSAN CHEMICAL CORPORATION, priority 2019, published 2023).

Assays:
[1] = tested on: late watergrass; assay: Test Example 1: herbicidal activity, application before weed generation under submerged conditions (Table 16, symbol A); format: in vivo, late watergrass (Echinochloa oryzicola); settings: amount of applied herbicide 320 g/ha
How it was run: (§1)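 Submerged Wagner pots (alluvial soil, 4 cm water) sown with weed seeds and planted with 2.5-leaf rice seedlings; emulsifiable concentrate diluted in water applied to water surface on sowing day. Held in greenhouse at 25-30 °C; injury scored 0-5 by herbicidal rate after three weeks.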

[2] = tested on: green foxtail; assay: Test Example 5: herbicidal effect by foliage application, plastic box (Table 20, symbol G); format: in vivo, green foxtail (Setaria viridis); settings: foliage application after 14-day growth, evaluated three weeks after application
How it was run: (§2)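 Foliar spray test: emulsion formulation diluted in water to a set application rate, sprayed onto 14-day-old plants raised in diluvial soil at 25° C to 30° C under glass. Both herbicidal effect and crop effect rated visually three weeks later.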

[3] = tested on: persian speedwell; assay: Test Example 4: herbicidal effect by soil treatment (Table 19, symbol R); format: in vivo, Persian speedwell (Veronica persica); settings: amount of applied herbicide 320 g/ha
How it was run: (§3)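 Herbicidal effect was rated 3 weeks after treatment, using the scoring criteria of an earlier test. The compound, formulated as an emulsion and diluted in water to a set herbicide amount, had been sprayed uniformly on soil over freshly sown seeds. Growth took place in a greenhouse at 25° C. to 30° C.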

[4] = tested on: windgrass; assay: Test Example 4: herbicidal effect by soil treatment (Table 19, symbol L); format: in vivo, windgrass (Apera spica-venti); settings: amount of applied herbicide 320 g/ha
How it was run: as §3

[5] = tested on: velvetleaf; assay: Test Example 5: herbicidal effect by foliage application, plastic box (Table 20, symbol M); format: in vivo, velvetleaf (Abutilon theophrasti); settings: foliage application after 14-day growth, evaluated three weeks after application
How it was run: as §2

[6] = tested on: rice flat sedge; assay: Test Example 3: herbicidal effect by foliage application, Wagner pot (Table 18, symbol E); format: in vivo, rice flat sedge (Cyperus iria); settings: 320 g/ha
How it was run: (§4)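 Plants were sown in alluvial soil held under 0.1–0.5 cm standing water and grown 14 days in a greenhouse at 25–30 °C. An emulsifiable formulation, water-diluted to the set dose, was then sprayed onto the foliage, and effects were scored three weeks later using previously defined criteria.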

[7] = tested on: barnyard grass; assay: Test Example 5: herbicidal effect by foliage application, plastic box (Table 20, symbol H); format: in vivo, barnyard grass (Echinochloa crus-galli); settings: foliage application after 14-day growth, evaluated three weeks after application
How it was run: as §2

[8] = tested on: lambsquarters; assay: Test Example 4: herbicidal effect by soil treatment (Table 19, symbol O); format: in vivo, lambsquarters (Chenopodium album); settings: amount of applied herbicide 320 g/ha
How it was run: as §3

[9] = tested on: blackgrass; assay: Test Example 5: herbicidal effect by foliage application, plastic box (Table 20, symbol J); format: in vivo, blackgrass (Alopecurus myosuroides); settings: foliage application after 14-day growth, evaluated three weeks after application
How it was run: as §2

[10] = tested on: oval-leafed pondweed; assay: Test Example 1: herbicidal activity, application before weed generation under submerged conditions (Table 16, symbol C); format: in vivo, oval-leafed pondweed (Monochoria vaginalis); settings: amount of applied herbicide 320 g/ha
How it was run: as §1

[11] = tested on: chickweed; assay: Test Example 4: herbicidal effect by soil treatment (Table 19, symbol P); format: in vivo, common chickweed (Stellaria media); settings: amount of applied herbicide 320 g/ha
How it was run: as §3

[12] = tested on: redroot pigweed; assay: Test Example 4: herbicidal effect by soil treatment (Table 19, symbol N); format: in vivo, redroot pigweed (Amaranthus retroflexus); settings: amount of applied herbicide 320 g/ha
How it was run: as §3

[13] = tested on: barnyard grass; assay: Test Example 4: herbicidal effect by soil treatment (Table 19, symbol H); format: in vivo, barnyard grass (Echinochloa crus-galli); settings: amount of applied herbicide 320 g/ha
How it was run: as §3

[14] = tested on: southern crabgrass; assay: Test Example 4: herbicidal effect by soil treatment (Table 19, symbol F); format: in vivo, southern crabgrass (Digitaria ciliaris); settings: amount of applied herbicide 320 g/ha
How it was run: as §3

[15] = tested on: green foxtail; assay: Test Example 4: herbicidal effect by soil treatment (Table 19, symbol G); format: in vivo, green foxtail (Setaria viridis); settings: amount of applied herbicide 320 g/ha
How it was run: as §3

[16] = tested on: persian speedwell; assay: Test Example 5: herbicidal effect by foliage application, plastic box (Table 20, symbol R); format: in vivo, Persian speedwell (Veronica persica); settings: foliage application after 14-day growth, evaluated three weeks after application
How it was run: as §2

[17] = tested on: blackgrass; assay: Test Example 4: herbicidal effect by soil treatment (Table 19, symbol J); format: in vivo, blackgrass (Alopecurus myosuroides); settings: amount of applied herbicide 320 g/ha
How it was run: as §3

[18] = tested on: wild oat; assay: Test Example 5: herbicidal effect by foliage application, plastic box (Table 20, symbol I); format: in vivo, wild oat (Avena fatua); settings: foliage application after 14-day growth, evaluated three weeks after application
How it was run: as §2

[19] = tested on: southern crabgrass; assay: Test Example 5: herbicidal effect by foliage application, plastic box (Table 20, symbol F); format: in vivo, southern crabgrass (Digitaria ciliaris); settings: foliage application after 14-day growth, evaluated three weeks after application
How it was run: as §2

[20] = tested on: barnyard grass; assay: Test Example 3: herbicidal effect by foliage application, Wagner pot (Table 18, symbol H); format: in vivo, barnyard grass (Echinochloa crus-galli); settings: 320 g/ha
How it was run: as §4

[21] = tested on: Italian ryegrass; assay: Test Example 5: herbicidal effect by foliage application, plastic box (Table 20, symbol K); format: in vivo, Italian ryegrass (Lolium multiflorum); settings: foliage application after 14-day growth, evaluated three weeks after application
How it was run: as §2

[22] = tested on: Chinese sprangletop; assay: Test Example 3: herbicidal effect by foliage application, Wagner pot (Table 18, symbol D); format: in vivo, chinese sprangletop (Leptochloa chinensis); settings: 320 g/ha
How it was run: as §4

[23] = tested on: Italian ryegrass; assay: Test Example 4: herbicidal effect by soil treatment (Table 19, symbol K); format: in vivo, Italian ryegrass (Lolium multiflorum); settings: amount of applied herbicide 320 g/ha
How it was run: as §3

[24] = tested on: redroot pigweed; assay: Test Example 5: herbicidal effect by foliage application, plastic box (Table 20, symbol N); format: in vivo, redroot pigweed (Amaranthus retroflexus); settings: foliage application after 14-day growth, evaluated three weeks after application
How it was run: as §2

[25] = tested on: windgrass; assay: Test Example 5: herbicidal effect by foliage application, plastic box (Table 20, symbol L); format: in vivo, windgrass (Apera spica-venti); settings: foliage application after 14-day growth, evaluated three weeks after application
How it was run: as §2

[26] = tested on: chickweed; assay: Test Example 5: herbicidal effect by foliage application, plastic box (Table 20, symbol P); format: in vivo, common chickweed (Stellaria media); settings: foliage application after 14-day growth, evaluated three weeks after application
How it was run: as §2

[27] = tested on: wild oat; assay: Test Example 4: herbicidal effect by soil treatment (Table 19, symbol I); format: in vivo, wild oat (Avena fatua); settings: amount of applied herbicide 320 g/ha
How it was run: as §3

[28] = tested on: Japanese bulrush; assay: Test Example 1: herbicidal activity, application before weed generation under submerged conditions (Table 16, symbol B); format: in vivo, Japanese bulrush (Schoenoplectus juncoides); settings: amount of applied herbicide 320 g/ha
How it was run: as §1

[29] = tested on: lambsquarters; assay: Test Example 5: herbicidal effect by foliage application, plastic box (Table 20, symbol O); format: in vivo, lambsquarters (Chenopodium album); settings: foliage application after 14-day growth, evaluated three weeks after application
How it was run: as §2

[30] = tested on: velvetleaf; assay: Test Example 4: herbicidal effect by soil treatment (Table 19, symbol M); format: in vivo, velvetleaf (Abutilon theophrasti); settings: amount of applied herbicide 320 g/ha
How it was run: as §3

[31] = amount of applied herbicide 320 g/ha

SMILES	Herbicidal effect, A: late watergrass [1]	Herbicidal effect by soil treatment, R: persian speedwell [3]	Herbicidal effect by soil treatment, L: windgrass [4]	herbicidal effect on rice flat sedge (E) [6]	Herbicidal effect by soil treatment, O: lambsquarters [8]	Herbicidal effect, C: oval-leafed pondweed [10]	Herbicidal effect by soil treatment, P: chickweed [11]	Herbicidal effect by soil treatment, N: redroot pigweed [12]	Herbicidal effect by soil treatment, H: barnyard grass [13]	Herbicidal effect by soil treatment, F: southern crabgrass [14]	Herbicidal effect by soil treatment, G: green foxtail [15]	Herbicidal effect by soil treatment, J: blackgrass [17]	herbicidal effect on barnyard grass (H) [20]	herbicidal effect on Chinese sprangletop (D) [22]	Herbicidal effect by soil treatment, K: Italian ryegrass [23]	Herbicidal effect by soil treatment, I: wild oat [27]	Herbicidal effect, B: Japanese bulrush [28]	Herbicidal effect by soil treatment, M: velvetleaf [30]	further results
CCCOc1ccc(-c2sc3c(F)cccc3c2-c2c(O)c(C)nn(C)c2=O)cc1 [4-009]	2 (Herbicidal rate of 20% or more and less than 40%)	4 (Herbicidal rate of 70% or more and less than 90%)	0 (Herbicidal rate of 5% or less (almost no effect))	5 (Herbicidal rate of 90% or more (almost completely withered))	3 (Herbicidal rate of 40% or more and less than 70%)	0 (Herbicidal rate of 5% or less (almost no effect))	4 (Herbicidal rate of 70% or more and less than 90%)	5 (Herbicidal rate of 90% or more (almost completely withered))	0 (Herbicidal rate of 5% or less (almost no effect))	0 (Herbicidal rate of 5% or less (almost no effect))	0 (Herbicidal rate of 5% or less (almost no effect))	0 (Herbicidal rate of 5% or less (almost no effect))	5 (Herbicidal rate of 90% or more (almost completely withered))	3 (Herbicidal rate of 40% or more and less than 70%)	0 (Herbicidal rate of 5% or less (almost no effect))	0 (Herbicidal rate of 5% or less (almost no effect))	1 (Herbicidal rate of 5% or more and less than 20%)	0 (Herbicidal rate of 5% or less (almost no effect))	herbicidal effect on G: green foxtail (evaluation grade 0-5) ([2]; 320 g/ha): 2 (Herbicidal rate of 20% or more and less than 40%); herbicidal effect on M: velvetleaf (evaluation grade 0-5) ([5]; 320 g/ha): 3 (Herbicidal rate of 40% or more and less than 70%); herbicidal effect on H: barnyard grass (evaluation grade 0-5) ([7]; 320 g/ha): 5 (Herbicidal rate of 90% or more (almost completely withered)); herbicidal effect on J: blackgrass (evaluation grade 0-5) ([9]; 320 g/ha): 4 (Herbicidal rate of 70% or more and less than 90%); herbicidal effect on R: persian speedwell (evaluation grade 0-5) ([16]; 320 g/ha): 5 (Herbicidal rate of 90% or more (almost completely withered)); herbicidal effect on I: wild oat (evaluation grade 0-5) ([18]; 320 g/ha): 0 (Herbicidal rate of 5% or less (almost no effect)); herbicidal effect on F: southern crabgrass (evaluation grade 0-5) ([19]; 320 g/ha): 3 (Herbicidal rate of 40% or more and less than 70%); herbicidal effect on K: Italian ryegrass (evaluation grade 0-5) ([21]; 320 g/ha): 4 (Herbicidal rate of 70% or more and less than 90%); herbicidal effect on N: redroot pigweed (evaluation grade 0-5) ([24]; 320 g/ha): 5 (Herbicidal rate of 90% or more (almost completely withered)); herbicidal effect on L: windgrass (evaluation grade 0-5) ([25]; 320 g/ha): 4 (Herbicidal rate of 70% or more and less than 90%); herbicidal effect on P: chickweed (evaluation grade 0-5) ([26]; 320 g/ha): 5 (Herbicidal rate of 90% or more (almost completely withered)); herbicidal effect on O: lambsquarters (evaluation grade 0-5) ([29]; 320 g/ha): 4 (Herbicidal rate of 70% or more and less than 90%)
CCCC(=O)Oc1c(C)nn(C)c(=O)c1-c1c(-c2ccccc2OC(F)(F)F)sc2c(Cl)cccc12 [4-077]	3 (Herbicidal rate of 40% or more and less than 70%)	3 (Herbicidal rate of 40% or more and less than 70%)	0 (Herbicidal rate of 5% or less (almost no effect))	5 (Herbicidal rate of 90% or more (almost completely withered))	0 (Herbicidal rate of 5% or less (almost no effect))	0 (Herbicidal rate of 5% or less (almost no effect))	0 (Herbicidal rate of 5% or less (almost no effect))	3 (Herbicidal rate of 40% or more and less than 70%)	0 (Herbicidal rate of 5% or less (almost no effect))	0 (Herbicidal rate of 5% or less (almost no effect))	0 (Herbicidal rate of 5% or less (almost no effect))	0 (Herbicidal rate of 5% or less (almost no effect))	5 (Herbicidal rate of 90% or more (almost completely withered))	4 (Herbicidal rate of 70% or more and less than 90%)	0 (Herbicidal rate of 5% or less (almost no effect))	0 (Herbicidal rate of 5% or less (almost no effect))	0 (Herbicidal rate of 5% or less (almost no effect))	0 (Herbicidal rate of 5% or less (almost no effect))	Herbicidal effect by foliage application, G: green foxtail [2, 31]: 3 (Herbicidal rate of 40% or more and less than 70%); Herbicidal effect by foliage application, M: velvetleaf [5, 31]: 5 (Herbicidal rate of 90% or more (almost completely withered)); Herbicidal effect by foliage application, H: barnyard grass [7, 31]: 3 (Herbicidal rate of 40% or more and less than 70%); Herbicidal effect by foliage application, J: blackgrass [9, 31]: 0 (Herbicidal rate of 5% or less (almost no effect)); Herbicidal effect by foliage application, R: persian speedwell [16, 31]: 5 (Herbicidal rate of 90% or more (almost completely withered)); Herbicidal effect by foliage application, I: wild oat [18, 31]: 0 (Herbicidal rate of 5% or less (almost no effect)); Herbicidal effect by foliage application, F: southern crabgrass [19, 31]: 0 (Herbicidal rate of 5% or less (almost no effect)); Herbicidal effect by foliage application, K: Italian ryegrass [21, 31]: 3 (Herbicidal rate of 40% or more and less than 70%); Herbicidal effect by foliage application, N: redroot pigweed [24, 31]: 5 (Herbicidal rate of 90% or more (almost completely withered)); Herbicidal effect by foliage application, L: windgrass [25, 31]: 0 (Herbicidal rate of 5% or less (almost no effect)); Herbicidal effect by foliage application, P: chickweed [26, 31]: 5 (Herbicidal rate of 90% or more (almost completely withered)); Herbicidal effect by foliage application, O: lambsquarters [29, 31]: 4 (Herbicidal rate of 70% or more and less than 90%)
